According to patent publication US11541010B2, “Amphoteric liposomes comprising imino lipids” (BioNTech Delivery Technologies GmbH, priority 2009, dated 2023):
Entries after “also recorded” stand apart in the source; their conditions may differ.

Assays:
Format in all cases: cell-based
HeLa cells [1] = test: Serum resistant transfection, cationic lipids with phosphate lipid DOPA, HeLa IC50 (Example 15); conditions: liposomes of the cationic lipid in combination with phosphate lipid DOPA, PLK-1 siRNA
Method: (§1) HeLa cells were obtained from DSMZ (German Collection of Micro Organism and Cell Cultures) and maintained in DMFM (Gibco-Invitrogen) and supplemented with 10% FCS. The cells were plated at a density of 2.5×10^4 cells/ml and cultivated in 100 μl medium at 37° C. under 5% CO2. After 16 h, the liposomes containing siRNA were diluted and 10 μl were added to the cells to yield final concentrations between 0.4 to 100 nM Plk1 or scrambled siRNA; 10 μl dilution buffer were also added to untreated cells and into wells without cells. Cell culture dishes were incubated for 72 h at 37° C. under 5% CO2
(§2) Cell proliferation/viability was determined by using the CellTiter-Blue Cell Viability assay (Promega, US) according to the instructions of the supplier.
Series of liposomes having C/A ratios of either 0.75 or 1 were produced and loaded with siRNA as in Example 5. The cationic lipid components were CHOLGUA, CHIM, DC-CHOL, GUADACA, MPDACA, BADACA, PONA, DOTAP or DODAP. The anionic lipid was DOPA and the cholesterol content was 40 mol %, all lipid mixtures are identified in table 20. Liposomes were further supplied with 1.5 mol % DMPE-PEG2000 (Nippon Oils and Fats).
HeLa cells were grown and maintained as in Example 2 and mouse serum (SIGMA-Aldrich) was added directly to the cells for 120-min. Following that, the liposomes were added to the cells, incubation was continued for 72 h and cell viability was determined as above. The efficacy of transfection is expressed here as IC50 (in nM of siRNA) as in Example 5.

HeLa cells [2] = test: Serum resistant transfection, DACA or cholesterol based cationic lipids with carboxyl lipids, HeLa (Example 14); conditions: for serum-resistant transfection of HeLa cells: liposomes of the cationic lipid with carboxyl lipid DOGS and cholesterol, PLK-1 siRNA, 10% mouse serum; for transfection of HeLa cells in the presence of mouse serum: liposomes of the cationic lipid with carboxyl lipids CHEMS, DMGS or DOGS, 20 or 40 mol % cholesterol
Method: All liposomes were loaded with PLK-1 siRNA, an oligonucleotide capable of inhibiting the production of the cell cycle kinase PLK-1 and successful transfection was measured by inhibition of cell viability of the test cells (see also Haupenthai et al., int. J. Cancer (2007), 121:206-210. Unspecific inhibition of the cell viability, that is, cytotoxic effects, were monitored by control preparations comprising a non-targeting siRNA of the same general composition and in the same amounts.
The transfection of cells was followed in regular cell culture medium or with the additional presence of 10% mouse serum, a potent inhibitor of cellular uptake for many amphoteric liposomes. The efficacy of transfection is expressed as IC50, the concentration needed to achieve a 50% inhibition of the cell viability.
The ratio between the IC50 in regular medium and the IC50 upon addition of mouse serum is used as a metric for the inhibition of the cellular uptake by mouse serum. This ratio is 5 or higher for liposomes without specific targeting properties. It is 5 or lower for the liposomes of this invention; that is liposomes comprising charged imino groups in combination with negatively charged lipids.
Series of liposomes having systematically varied ratios between the cationic and anionic lipid components were produced and loaded with siRNA as in Example 5. The cationic lipid components were CHOLGUA, CHIM, DC-CHOL, TC-CHOL, GUADACA, MPDACA, BADACA end PDAGA. The anionic lipids were CHEMS, DMGS or DOGS and the cholesterol content was either 20 or 40 mol %, all lipid mixtures are identified in the data tables. Liposomes having a ratio of the cationic: anionic lipid of 1 or greater (C/A>=1) were further supplied with 1.5 mol % DMPE-PEG2000 (Nippon Oils and Fats).
HeLa cells were grown and maintained as in Example 2 and mouse serum (SIGMA-Aldrich) was added directly to the cells for 120 min. Following that, the liposomes were added to the cells, incubation was continued for 72 h and cell viability was determined as above. The highest concentrations of liposomes were 40 nM and 36 nM for experiments in the absence or presence of mouse serum, respectively. The efficacy of transfection is expressed here as IC50 (in nM siRNA) as in Example 5.

HeLa cells [3] = test: Criticality of the guanido head group, HeLa proliferation IC50 with and without sera (Example 6); conditions: mixtures comprising an excess of the anionic lipid CHEMS, 20% cholesterol
Method: as §1, §2
Series of liposomes having systematically varied ratios between the cationic and anionic lipid components were produced and loaded with siRNA as in Example 5. The cationic lipid components were PONA, PONamine and PONammonium, the anionic lipid was CHEMS and the cholesterol content was fixed to 20 mol %. […]
HeLa cells were grown and maintained as in Example 2 and sera of human or mice origin (SIGMA-Aldrich) was added directly to the cells for 120 min. Following that, the liposomes were added to the cells in concentrations between 50 pM and 50 nM, incubation was continued for 72 h and cell viability was determined as above. […]

SMILES | transfection of HeLa cells in the presence of serum (HeLa cells [1]) | serum-resistant transfection of HeLa cells (HeLa cells [2]) | transfection of HeLa cells in the presence of mouse serum (HeLa cells [2]) | transfection activity in the presence of sera (HeLa cells [3])
CC(C)CCC[C@@H](C)[C@H]1CC[C@H]2[C@@H]3CC=C4C[C@@H](OC(=O)NCCN(C)C)CC[C@]4(C)[C@H]3CC[C@]12C [DC-CHOL, reference compound] | did not result in any transfection in the presence of serum | still active in the absence, but no longer in the presence of mouse serum | – | –
CCCCCCCC/C=C/CCCCCCCC(=O)NC(CCNC(=N)N)C(=O)NCCCCCCCCCCCCCCCC (centres unmarked) [PONA, palmitoyl-oleoyl-nor-arginine] | resulted in serum-resistant transfection; also recorded: remain potent transfectants even in the presence of mouse serum | – | remain potent transfectants even in the presence of mouse serum | –
CC(C)CCC[C@@H](C)[C@H]1CC[C@H]2[C@@H]3CCC4CC(OC(=O)NCCCn5ccnc5)CC[C@]4(C)[C@H]3CC[C@]12C (some centres unmarked) [CHIM, reference compound] | did not result in any transfection in the presence of serum | – | – | –
CCCCCCCC/C=C/CCCCCCCC(=O)NC(CCN)C(=O)NCCCCCCCCCCCCCCCC (centres unmarked) [PONamine] | resulted in serum-resistant transfection | – | – | –
CC(C)CCC[C@@H](C)[C@H]1CC[C@H]2[C@@H]3CC=C4C[C@@H](OC(=O)NCCNC(=N)N)CC[C@]4(C)[C@H]3CC[C@]12C [CHOLGUA] | remain potent transfectants even in the presence of mouse serum | best serum-resistant transfection | remain potent transfectants even in the presence of mouse serum | –
CCCCCCCC/C=C/CCCCCCCC(=O)NC(CC[N+](C)(C)C)C(=O)NCCCCCCCCCCCCCCCC (centres unmarked) [PONammonium] | not PONammonium resulted in serum-resistant transfection | – | – | remained inactive in the presence of sera
